Experimental findings from US8614327B2 (Vertex Pharmaceuticals Incorporated, priority 2004, dated 2013) are described below.

In this experiment the target is T1, ΔF508-CFTR (Homo sapiens, UniProt P13569, DEL508-508).
T1 construct: expressed in transfected cells
As to the kind of experiment: Membrane potential optical (FRET/VIPR) assay, identification of potentiator compounds. Format: cell-based. To be noted: Table 3, assay not given; for % Activity: relative efficacy. In short, it runs like this: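 NIH3T3 mouse fibroblasts stably expressing ΔF508-CFTR, temperature-corrected 24 h at 27° C., read on VIPR by FRET between CC2-DMPE and DiSBAC2(3). Potentiators identified in a double-addition format, first adding chloride-free (gluconate) medium with or without compound.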

T1 sequence (P13569 with tags, fused parts or gaps DEL508-508): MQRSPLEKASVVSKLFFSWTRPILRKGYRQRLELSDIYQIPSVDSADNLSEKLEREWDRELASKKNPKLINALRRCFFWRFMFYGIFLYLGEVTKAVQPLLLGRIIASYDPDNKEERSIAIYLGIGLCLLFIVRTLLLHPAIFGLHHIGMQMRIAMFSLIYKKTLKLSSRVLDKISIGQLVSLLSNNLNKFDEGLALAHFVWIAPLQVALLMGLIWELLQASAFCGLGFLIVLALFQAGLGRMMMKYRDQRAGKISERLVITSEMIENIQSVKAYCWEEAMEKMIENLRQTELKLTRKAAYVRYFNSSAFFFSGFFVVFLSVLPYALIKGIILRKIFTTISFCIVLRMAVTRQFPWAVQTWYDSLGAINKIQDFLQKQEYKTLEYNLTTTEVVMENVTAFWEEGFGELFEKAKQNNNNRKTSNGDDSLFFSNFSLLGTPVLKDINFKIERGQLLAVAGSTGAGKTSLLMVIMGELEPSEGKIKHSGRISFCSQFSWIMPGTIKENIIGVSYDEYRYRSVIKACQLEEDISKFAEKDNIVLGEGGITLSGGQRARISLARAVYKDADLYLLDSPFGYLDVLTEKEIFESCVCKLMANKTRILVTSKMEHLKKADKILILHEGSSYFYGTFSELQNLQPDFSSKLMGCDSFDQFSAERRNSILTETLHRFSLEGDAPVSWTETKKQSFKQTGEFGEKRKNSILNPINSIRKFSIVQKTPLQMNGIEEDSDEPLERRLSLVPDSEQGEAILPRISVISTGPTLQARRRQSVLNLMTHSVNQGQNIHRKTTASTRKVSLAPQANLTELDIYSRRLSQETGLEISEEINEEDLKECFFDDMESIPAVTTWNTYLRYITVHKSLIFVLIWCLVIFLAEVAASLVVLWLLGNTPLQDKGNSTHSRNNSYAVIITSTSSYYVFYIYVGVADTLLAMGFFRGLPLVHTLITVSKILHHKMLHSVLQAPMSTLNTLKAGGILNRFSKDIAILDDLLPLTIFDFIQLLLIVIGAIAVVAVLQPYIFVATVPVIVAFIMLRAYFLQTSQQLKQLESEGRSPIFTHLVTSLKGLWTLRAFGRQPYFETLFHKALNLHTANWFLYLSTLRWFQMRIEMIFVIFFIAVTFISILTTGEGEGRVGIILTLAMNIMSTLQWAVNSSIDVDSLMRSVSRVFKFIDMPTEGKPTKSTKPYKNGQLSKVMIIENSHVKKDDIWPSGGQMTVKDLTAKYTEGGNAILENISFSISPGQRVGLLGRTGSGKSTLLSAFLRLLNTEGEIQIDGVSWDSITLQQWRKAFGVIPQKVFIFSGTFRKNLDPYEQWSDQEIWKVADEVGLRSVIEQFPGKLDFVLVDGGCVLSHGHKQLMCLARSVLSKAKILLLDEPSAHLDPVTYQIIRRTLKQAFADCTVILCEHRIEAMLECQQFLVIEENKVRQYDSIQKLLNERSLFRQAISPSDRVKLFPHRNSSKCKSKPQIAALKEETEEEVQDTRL

Consider `O=C(Nc1ccccc1Oc1ccc(Cl)cc1Cl)c1c[nH]c2ccccc2c1=O` [Compound 245, N-[2-(2,4-dichlorophenoxy)phenyl]-4-oxo-1H-quinoline-3-carboxamide], for which the EC50 was below 10 µM and the “% Activity” value was “++ (between 25% to 100%)”.
On to `Cc1ccc(NC(=O)c2c[nH]c3ccccc3c2=O)cc1C` [Compound 246, N-(3,4-dimethylphenyl)-4-oxo-1H-quinoline-3-carboxamide], for which the EC50 is below 10 µM and the “% Activity” value was “++ (between 25% to 100%)”.
`O=C(Nc1ccccc1-c1ccccc1Oc1ccccc1)c1c[nH]c2ccccc2c1=O` [Compound 247, 4-oxo-N-[2-(2-phenoxyphenyl)phenyl]-1H-quinoline-3-carboxamide]: the EC50 is below 10 µM and the “% Activity” value is “++ (between 25% to 100%)”.
Turning to `CC(=O)Nc1cc(NC(=O)c2c[nH]c3ccccc3c2=O)ccc1C` [Compound 248, N-(3-Acetylamino-4-methyl-phenyl)-4-oxo-1H-quinoline-3-carboxamide], the EC50 is 10 to 25 µM and the “% Activity” value was “++ (between 25% to 100%)”.
The matching figures for `CCc1ccc(NC(=O)OC)cc1NC(=O)c1c[nH]c2ccccc2c1=O` [Compound 249, [4-ethyl-3-[(4-oxo-1H-quinolin-3-yl)carbonylamino]phenyl]aminoformic acid methyl ester]: 10 to 25 µM and “++ (between 25% to 100%)”.
On to `COc1ccc(NC(C)=O)cc1NC(=O)c1c[nH]c2ccccc2c1=O` [Compound 250, N-(5-acetylamino-2-methoxy-phenyl)-4-oxo-1H-quinoline-3-carboxamide], for which the EC50 is 25 to 60 µM and the “% Activity” value is reported as “+ (<25%)”.
In the case of `CC(C)COC(=O)NCC(C)(C)c1ccc(NC(=O)c2c[nH]c3ccccc3c2=O)cc1` [Compound 251, [2-methyl-2-[4-[(4-oxo-1H-quinolin-3-yl)carbonylamino]phenyl]-propyl]aminoformic acid isobutyl ester], the EC50 was below 10 µM and the “% Activity” value was “++ (between 25% to 100%)”.
For `O=C(c1ccccc1)c1ccccc1NC(=O)c1c[nH]c2ccccc2c1=O` [Compound 252, N-(2-benzoylphenyl)-4-oxo-1H-quinoline-3-carboxamide], the EC50 was in the range of 10 to 25 µM and the “% Activity” value is reported as “++ (between 25% to 100%)”.
For the compound `O=C(Nc1ccccc1-c1cccc(OC(F)(F)F)c1)c1c[nH]c2ccccc2c1=O` [Compound 253, 4-oxo-N-[2-[3-(trifluoromethoxy)phenyl]phenyl]-1H-quinoline-3-carboxamide], the EC50 is below 10 µM and the “% Activity” value is “++ (between 25% to 100%)”.
`O=C(Nc1cc2[nH]ccc2cc1F)c1c[nH]c2ccc(F)cc2c1=O` [Compound 254, 6-fluoro-N-(5-fluoro-1H-indol-6-yl)-4-oxo-1H-quinoline-3-carboxamide]: the EC50 was below 10 µM and the “% Activity” value was “++ (between 25% to 100%)”.
With `CC(C)(C)c1cc(C(C)(C)C)c(NC(=O)c2c[nH]c3ccc(S(=O)(=O)N4CCCC4)cc3c2=O)cc1O` [Compound 255, N-(5-hydroxy-2,4-ditert-butyl-phenyl)-4-oxo-6-pyrrolidin-1-ylsulfonyl-1H-quinoline-3-carboxamide], the EC50 is below 10 µM and the “% Activity” value was “++ (between 25% to 100%)”.
For `O=C(Nc1ccc2[nH]nnc2c1)c1c[nH]c2ccccc2c1=O` [Compound 256, N-(1H-benzotriazol-5-yl)-4-oxo-1H-quinoline-3-carboxamide], the EC50 was 25 to 60 µM and the “% Activity” value is given as “+ (<25%)”.
As for `Cc1cc(NC(=O)c2c[nH]c3ccccc3c2=O)ccc1F` [Compound 257, N-(4-fluoro-3-methyl-phenyl)-4-oxo-1H-quinoline-3-carboxamide], the EC50 was below 10 µM and the “% Activity” value is given as “++ (between 25% to 100%)”.
For `O=C(Nc1ccc2c(c1)NCC2)c1c[nH]c2ccccc2c1=O` [Compound 258, N-Indolin-6-yl-4-oxo-1H-quinoline-3-carboxamide], the EC50 was below 10 µM and the “% Activity” value is given as “++ (between 25% to 100%)”.
Taken in the same sequence, the figures for `CCC(C)c1c[nH]c2cc(NC(=O)c3c[nH]c4ccccc4c3=O)ccc12` (centres unmarked) [Compound 259, 4-oxo-N-(3-sec-butyl-1H-indol-6-yl)-1H-quinoline-3-carboxamide] were below 10 µM and “++ (between 25% to 100%)”.
As for `CC(C)(C)c1ccc(N)cc1NC(=O)c1c[nH]c2ccccc2c1=O` [Compound 260, N-(5-Amino-2-tert-butyl-phenyl)-4-oxo-1H-quinoline-3-carboxamide], the EC50 is below 10 µM and the “% Activity” value is listed as “++ (between 25% to 100%)”.
In the case of `Cc1ccc(-c2ccccc2NC(=O)c2c[nH]c3ccccc3c2=O)cc1C` [Compound 261, N-[2-(3,4-dimethylphenyl)phenyl]-4-oxo-1H-quinoline-3-carboxamide], the EC50 is below 10 µM and the “% Activity” value is “++ (between 25% to 100%)”.
The matching figures for `O=C1CSc2ccc(NC(=O)c3c[nH]c4ccccc4c3=O)cc2N1` [Compound 262, 1,4-dihydro-N-(3,4-dihydro-3-oxo-2H-benzo[b][1,4]thiazin-6-yl)-4-oxoquinoline-3-carboxamide]: below 10 µM and “++ (between 25% to 100%)”.
Regarding `CCc1cc(Br)ccc1NC(=O)c1c[nH]c2ccccc2c1=O` [Compound 263, N-(4-bromo-2-ethyl-phenyl)-4-oxo-1H-quinoline-3-carboxamide], the EC50 was below 10 µM and the “% Activity” value is reported as “++ (between 25% to 100%)”.
Turning to `CCOc1ccc(OCC)c(NC(=O)c2c[nH]c3ccccc3c2=O)c1` [Compound 264, N-(2,5-diethoxyphenyl)-4-oxo-1H-quinoline-3-carboxamide], the 50% effective concentration (EC50) was in the range of 10 to 25 µM and the “% Activity” value was “++ (between 25% to 100%)”.
In the case of `O=C(Nc1ccccc1Cc1ccccc1)c1c[nH]c2ccccc2c1=O` [Compound 265, N-(2-benzylphenyl)-4-oxo-1H-quinoline-3-carboxamide], the EC50 was below 10 µM and the “% Activity” value was “++ (between 25% to 100%)”.
The matching figures for `CC(C)(C)c1cc(C(F)(F)F)c(NC(=O)c2c[nH]c3ccccc3c2=O)cc1O` [Compound 266, N-[5-hydroxy-4-tert-butyl-2-(trifluoromethyl)phenyl]-4-oxo-1H-quinoline-3-carboxamide]: below 10 µM and “++ (between 25% to 100%)”.
As for `O=C(Nc1ccc(Oc2ccccc2)cc1)c1c[nH]c2ccccc2c1=O` [Compound 267, 4-oxo-N-(4-phenoxyphenyl)-1H-quinoline-3-carboxamide], the EC50 is below 10 µM and the “% Activity” value is “++ (between 25% to 100%)”.
The matching figures for `CC(C)(C)c1ccc(NC(=O)c2c[nH]c3ccccc3c2=O)cc1S(N)(=O)=O` [Compound 268, 4-oxo-N-(3-sulfamoyl-4-tert-butyl-phenyl)-1H-quinoline-3-carboxamide]: 10 to 25 µM and “++ (between 25% to 100%)”.
Regarding `CCOC(=O)Nc1ccc(C(C)C)c(NC(=O)c2c[nH]c3ccccc3c2=O)c1` [Compound 269, [4-isopropyl-3-[(4-oxo-1H-quinolin-3-yl)carbonylamino]phenyl]aminoformic acid ethyl ester], the half-maximal effective concentration (EC50) was below 10 µM and the “% Activity” value is recorded as “++ (between 25% to 100%)”.
For `N#Cc1cc2ccc(NC(=O)c3c[nH]c4ccccc4c3=O)cc2[nH]1` [Compound 270, N-(2-cyano-1H-indol-6-yl)-4-oxo-1H-quinoline-3-carboxamide], the EC50 was below 10 µM and the “% Activity” value is on record as “++ (between 25% to 100%)”.
Take `CC(C)(C)c1ccc(NC(=O)c2c[nH]c3ccccc3c2=O)cc1N` [Compound 271, N-(3-amino-4-tert-butyl-phenyl)-4-oxo-1H-quinoline-3-carboxamide]: the concentration for a half-maximal effect (EC50) is below 10 µM and the “% Activity” value is “++ (between 25% to 100%)”.
Take `O=C(Nc1cc(NS(=O)(=O)CCN2CCOCC2)cc(C(F)(F)F)c1)c1c[nH]c2ccccc2c1=O` [Compound 272, N-[3-(2-morpholinoethylsulfonylamino)-5-(trifluoromethyl)phenyl]-4-oxo-1H-quinoline-3-carboxamide]: the EC50 was 10 to 25 µM and the “% Activity” value is recorded as “++ (between 25% to 100%)”.
The matching figures for `CC(C)(C)OC(=O)NC1CCCc2ccc(NC(=O)c3c[nH]c4ccccc4c3=O)cc21` (centres unmarked) [Compound 273, [7-[(4-oxo-1H-quinolin-3-yl)carbonylamino]tetralin-1-yl]aminoformic acid tert-butyl ester]: below 10 µM and “+++ (>100%)”.
As to `CC(C)(C)c1cc2cc[nH]c2cc1NC(=O)c1c[nH]c2ccc(S(=O)(=O)N3CCCC3)cc2c1=O` [Compound 274, 4-oxo-6-pyrrolidin-1-ylsulfonyl-N-(5-tert-butyl-1H-indol-6-yl)-1H-quinoline-3-carboxamide], the EC50 was below 10 µM and the “% Activity” value is “++ (between 25% to 100%)”.
For `CC(C)(C)c1ccc(NC(=O)c2cnc3ccccc3c2OCc2ccccc2)cc1O` [Compound 275, 4-Benzyloxy-N-(3-hydroxy-4-tert-butyl-phenyl)-quinoline-3-carboxamide], the EC50 is 10 to 25 µM and the “% Activity” value was “++ (between 25% to 100%)”.
As to `O=C(Nc1ccc(S(=O)(=O)N2CCOCC2)cc1)c1c[nH]c2ccccc2c1=O` [Compound 276, N-(4-morpholinosulfonylphenyl)-4-oxo-1H-quinoline-3-carboxamide], the EC50 lay in the range of 10 to 25 µM and the “% Activity” value is “++ (between 25% to 100%)”.
With `O=C(Nc1ccccc1-c1cccc(F)c1)c1c[nH]c2ccccc2c1=O` [Compound 277, N-[2-(3-fluorophenyl)phenyl]-4-oxo-1H-quinoline-3-carboxamide], the “% Activity” value was “+++ (>100%)”.

In general, EC50 refers to the concentration at which the effect is half-maximal.
